Numbered stars: 1 amine (or outer) side, 2 acyl side, 3 side chain; on linkers, the order of the positions; unused ones are H or OH. Bridge positions count the residues as written; N and C are the ends. Square brackets hold non-standard residues; d marks the D form. Peptide text beside a SMILES is read from it. tBuAla = CC(C)(C)C[C@H](N)C(=O)O; X1 = O=C(CCC[*:2])[*:1]
Biological target: T1, Oxytocin receptor (Homo sapiens, UniProt P30559)
T1 sequence (P30559 whole entry): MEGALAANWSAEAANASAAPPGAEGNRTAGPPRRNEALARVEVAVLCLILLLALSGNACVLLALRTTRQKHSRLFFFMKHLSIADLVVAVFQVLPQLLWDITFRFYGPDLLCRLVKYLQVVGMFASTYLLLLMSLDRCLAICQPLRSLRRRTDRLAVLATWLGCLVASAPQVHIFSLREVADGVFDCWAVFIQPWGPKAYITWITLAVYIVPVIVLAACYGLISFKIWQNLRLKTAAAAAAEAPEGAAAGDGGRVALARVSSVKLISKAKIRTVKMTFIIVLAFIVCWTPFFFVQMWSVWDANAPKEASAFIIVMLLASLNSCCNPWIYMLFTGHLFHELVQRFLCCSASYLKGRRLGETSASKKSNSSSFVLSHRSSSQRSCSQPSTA
Test: Agonist activity at human OTR expressed in CHO cells assessed as calcium mobilization measured after 30 mins by Fluo-4-AM dye based FLIPR assay

EC50 | Compound
8 pM | CC[C@H](C)[C@@H]1NC(=O)[C@H](Cc2ccc(O)cc2)NC(=O)CCSSC[C@@H](C(=O)N2CCC[C@H]2C(=O)N[C@@H](CC(C)C)C(=O)NNC(N)=O)NC(=O)[C@H](CC(N)=O)NC(=O)[C@H](CCC(N)=O)NC1=O
7 pM | CC[C@H](C)[C@@H]1NC(=O)[C@H](Cc2ccc(O)cc2)NC(=O)CCCSC[C@@H](C(=O)N2CCC[C@H]2C(=O)N[C@@H](CC(C)(C)C)C(=O)NCC(N)=O)NC(=O)[C@H](CC(N)=O)NC(=O)[C@H](CCC(N)=O)NC1=O (YIQNCP[tBuAla]G-NH2; linker N-5 via X1)

From BindingDB's records for doi:10.1016/j.bmcl.2017.04.030 (Takeda Pharmaceutical, 2017)
